Experimental data taken from patent US20040038875A1, “Alpha 7nicotinic receptor screening assays” (priority 2002, published 2004).

Tests used:
[1] = biological target: T1, homomeric alpha 7 nicotinic receptors (Homo sapiens, UniProt P36544); set-up: host or cells: oocytes; details: in the μM range, human receptor in oocytes; cited from earlier work
[2] = biological target: T2, neuronal chick homomeric alpha 7 nicotinic receptors (Gallus gallus, UniProt P22770); details: in the μM range, chick receptor in oocytes; cited from earlier work
T2 construct: host or cells: oocytes
T2 sequence (P22770 23-502 limits assumed): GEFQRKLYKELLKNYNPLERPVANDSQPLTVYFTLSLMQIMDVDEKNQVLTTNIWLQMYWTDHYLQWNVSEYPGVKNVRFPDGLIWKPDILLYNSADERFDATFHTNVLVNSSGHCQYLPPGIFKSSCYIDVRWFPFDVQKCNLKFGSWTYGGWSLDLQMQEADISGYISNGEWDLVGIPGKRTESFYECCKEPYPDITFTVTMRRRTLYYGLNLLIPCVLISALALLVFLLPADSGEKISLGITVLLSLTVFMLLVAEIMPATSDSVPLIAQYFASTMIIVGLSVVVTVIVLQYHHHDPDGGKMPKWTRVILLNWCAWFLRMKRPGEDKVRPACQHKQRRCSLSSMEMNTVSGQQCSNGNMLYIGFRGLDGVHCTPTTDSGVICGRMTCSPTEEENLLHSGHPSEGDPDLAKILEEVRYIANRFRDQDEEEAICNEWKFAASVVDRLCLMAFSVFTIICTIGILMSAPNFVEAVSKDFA

hippocampal neurons = test: Ca2+ flux into hippocampal neurons; format: cell-based
From the text: This is of particular interest in relation to Alzheimer's Disease since the hippocampus is the major site of degeneration neuropathology associated with that disease.

[3] = biological target: T3, human alpha 7 nicotinic receptor (Homo sapiens, UniProt P36544); test: ACh-induced currents / Ca2+ flux in Xenopus oocytes expressing human alpha 7 nicotinic receptors (two microelectrode voltage clamp, intracellular recordings); format: cell-based
T3 construct: expressed in transfected cells; host or cells: Xenopus oocytes injected with in vitro transcribed alpha 7 subunit mRNA
T3 sequence (P36544 23-502): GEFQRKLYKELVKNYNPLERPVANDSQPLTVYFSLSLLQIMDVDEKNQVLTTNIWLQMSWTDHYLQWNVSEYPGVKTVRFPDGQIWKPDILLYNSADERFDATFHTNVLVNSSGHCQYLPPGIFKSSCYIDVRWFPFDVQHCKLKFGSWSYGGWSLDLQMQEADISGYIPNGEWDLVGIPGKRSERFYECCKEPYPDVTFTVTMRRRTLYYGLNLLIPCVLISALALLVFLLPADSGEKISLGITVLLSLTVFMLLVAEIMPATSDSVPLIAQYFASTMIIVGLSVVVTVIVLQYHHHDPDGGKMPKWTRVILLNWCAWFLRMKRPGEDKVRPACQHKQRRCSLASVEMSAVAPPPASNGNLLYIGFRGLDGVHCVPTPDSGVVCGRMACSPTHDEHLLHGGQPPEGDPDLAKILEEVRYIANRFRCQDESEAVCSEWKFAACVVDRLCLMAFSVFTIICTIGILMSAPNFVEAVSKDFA

[4] = test system: neurons of the substantia nigra; details: cited from earlier work
[5] = biological target: T1, homomeric alpha 7 nicotinic receptors; details: cited from earlier work

T1 sequence (P36544 23-502): as above

Question: What does the source list for ivermectin?
Answer: acetyl choline-evoked currents [1]: strongly enhance; acetyl choline-evoked currents [2]: strongly enhance

Question: Which results are given for AEFHRWSSYMVHWK [Synaptica Peptide]?
Answer: Ca2+ flux into hippocampal neurons (hippocampal neurons): enhance Ca^2+ flux into hippocampal neurons which eventually switches off calcium channels; reversibility of effects [3]: reversible but recovery was slow; effect on ACh-induced Ca2+ flux ([3]; 0.001 μM applied with ACh, no pre-incubation): increased Ca^2+ flux; Ca2+ current, intracellular recordings ([3]; 10 μM applied without ACh): no Ca^2+ current was observed; current, intracellular recordings ([3]; 10 μM followed after 30 seconds by 100 μM ACh): reduced current compared to that observed with ACh alone; effect on ACh-evoked response at high dose ([3]; high dose, range 10^−12 to 5×10^−6): enhancement of ACh-evoked response observed with low doses of the peptide was reversed; effect on ACh-mediated responses ([3]; peptide applied, after 2 minutes co-application of peptide and ACh): inhibition of ACh-mediated responses; calcium potentials induced by NMDA or direct depolarisation ([4]; initial effect): initially enhances calcium potentials; calcium entry ([4]; sustained application for a few minutes): reduction in calcium entry

Question: For `COc1ccc(/C=C2\CCCN=C2c2cccnc2)c(OC)c1` [GTS-21, 2,4-dimethoxybenzylidene anabaseine], which “functional selectivity compared to α4β2 nicotinic receptors” value [5] is on record?
Answer: Its value is “high functional selectivity”.

Question: With “Aβ1-42: Aβ1-42 fragment of human APP associated with Alzheimer's Disease [reference compound]” as the molecule, how does the “modulation of calcium influx” value [4] read?
Answer: The value was “not observed”.
